The experiment concerns MV-4-11 cells. Description: Gene expression microarray analysis (Affymetrix PrimeView) and GSEA. In kind it is cell-based, human. The arrangement: RFU PODN (11730768_x_at) / Fold change /veh PODN (11730768_x_at) / RFU LINC00158 (11744669_a_at) / Fold change /veh LINC00158 (11744669_a_at) / RFU DUSP10 (11751237_a_at) / Fold change /veh DUSP10 (11751237_a_at) / RFU ID3 (11757404_x_at) / Fold change /veh ID3 (11757404_x_at) / RFU PLEKHG5 (11737974_s_at) / Fold change /veh PLEKHG5 (11737974_s_at) / RFU LRRC4B (11730491_at) / Fold change /veh LRRC4B (11730491_at) / RFU GIMAP4 (11747438_a_at) / Fold change /veh GIMAP4 (11747438_a_at) / RFU KRT8 (11758183_x_at) / Fold change /veh KRT8 (11758183_x_at) / RFU CNN1 (11734310_a_at) / Fold change /veh CNN1 (11734310_a_at) / RFU VPS37D (11726825_at) / Fold change /veh VPS37D (11726825_at) / RFU C10orf10 (11716522_x_at) / Fold change /veh C10orf10 (11716522_x_at) / RFU KIR2DL2 /// KIR2DL4 /// KIR2DL5A /// KIR2DL5B /// KIR2DS1 /// KIR2DS2 /// KIR2DS3 /// KIR2DS4 /// KIR3DL3 /// KIR3DL3 /// KIR3DS1 (11738374_at) / Fold change /veh KIR2DL2 /// KIR2DL4 /// KIR2DL5A /// KIR2DL5B /// KIR2DS1 /// KIR2DS2 /// KIR2DS3 /// KIR2DS4 /// KIR3DL3 /// KIR3DL3 /// KIR3DS1 (11738374_at) / RFU C1QL1 (11718748_at) / Fold change /veh C1QL1 (11718748_at) / RFU TMPRSS4 (11747572_a_at) / Fold change /veh TMPRSS4 (11747572_a_at) / RFU HAMP (11756126_x_at) / Fold change /veh HAMP (11756126_x_at) / RFU RNFT2 (11725882_a_at) / Fold change /veh RNFT2 (11725882_a_at) / RFU NR4A2 (11747474_a_at) / Fold change /veh NR4A2 (11747474_a_at) / RFU ABCC12 (11746883_a_at) / Fold change /veh ABCC12 (11746883_a_at) / RFU TMEM136 (11760407_x_at) / Fold change /veh TMEM136 (11760407_x_at) / RFU CLDN22 /// WWC2 (11732394_at) / Fold change /veh CLDN22 /// WWC2 (11732394_at) / RFU HLA-DPB1 (11760878_x_at) / Fold change /veh HLA-DPB1 (11760878_x_at) / RFU SPINT1 (11716480_a_at) / Fold change /veh SPINT1 (11716480_a_at) / RFU GAP43 (11754022_s_at) / Fold change /veh GAP43 (11754022_s_at) / RFU A4GNT (11735810_at) / Fold change /veh A4GNT (11735810_at) / RFU PRB3 (11715151_x_at) / Fold change /veh PRB3 (11715151_x_at) / RFU TUBB4B (11761932_at) / Fold change /veh TUBB4B (11761932_at) / RFU CAPN14 (11732068_a_at) / Fold change /veh CAPN14 (11732068_a_at) / RFU TMCC2 (11721928_a_at) / Fold change /veh TMCC2 (11721928_a_at) / RFU IRGQ (11745062_a_at) / Fold change /veh IRGQ (11745062_a_at) / RFU FAM174B (11720279_a_at) / Fold change /veh FAM174B (11720279_a_at) / RFU TMPRSS4 (11748680_a_at) / Fold change /veh TMPRSS4 (11748680_a_at) / RFU FAM212B (11763350_a_at) / Fold change /veh FAM212B (11763350_a_at) / RFU PLEKHG5 (11743358_a_at) / Fold change /veh PLEKHG5 (11743358_a_at) / RFU ZSCAN30 (11745921_a_at) / Fold change /veh ZSCAN30 (11745921_a_at) / RFU CMKLR1 (11741424_a_at) / Fold change /veh CMKLR1 (11741424_a_at) / RFU LOC101060620 /// MAPK8IP1 (11723275_at) / Fold change /veh LOC101060620 /// MAPK8IP1 (11723275_at) / RFU SPTSSB (11747773_x_at) / Fold change /veh SPTSSB (11747773_x_at) / RFU PRSS12 (11739890_at) / Fold change /veh PRSS12 (11739890_at) / RFU BIN1 (11741810_x_at) / Fold change /veh BIN1 (11741810_x_at) / RFU WNT11 (11732464_a_at) / Fold change /veh WNT11 (11732464_a_at) / RFU C10orf10 (11716521_a_at) / Fold change /veh C10orf10 (11716521_a_at) / RFU C5orf56 (11738089_at) / Fold change /veh C5orf56 (11738089_at) / RFU CYB561 (11721691_x_at) / Fold change /veh CYB561 (11721691_x_at) / RFU ANKRD19P (11752326_a_at) / Fold change /veh ANKRD19P (11752326_a_at) / RFU OR2T12 /// OR2T33 /// OR2T8 (11738714_s_at) / Fold change /veh OR2T12 /// OR2T33 /// OR2T8 (11738714_s_at) / RFU VCAN (11748164_a_at) / Fold change /veh VCAN (11748164_a_at) / RFU JSRP1 (11732532_at) / Fold change /veh JSRP1 (11732532_at) / RFU KRTAP10-11 (11738290_x_at) / Fold change /veh KRTAP10-11 (11738290_x_at) / RFU MYO3A (11730013_a_at) / Fold change /veh MYO3A (11730013_a_at) / RFU EBF3 (11725865_a_at) / Fold change /veh EBF3 (11725865_a_at) / RFU CAMK2N1 (11719241_x_at) / Fold change /veh CAMK2N1 (11719241_x_at) / RFU C5orf56 (11738088_a_at) / Fold change /veh C5orf56 (11738088_a_at) / RFU OLFML3 (11715873_a_at) / Fold change /veh OLFML3 (11715873_a_at) / RFU LOC100653217 /// NTM (11731650_a_at) / Fold change /veh LOC100653217 /// NTM (11731650_a_at) / RFU MAPK11 (11762145_a_at) / Fold change /veh MAPK11 (11762145_a_at) / RFU FIZ1 (11724087_x_at) / Fold change /veh FIZ1 (11724087_x_at) / RFU OASL (11726364_x_at) / Fold change /veh OASL (11726364_x_at) / RFU SOX15 (11748057_x_at) / Fold change /veh SOX15 (11748057_x_at) / RFU CD79A (11719716_a_at) / Fold change /veh CD79A (11719716_a_at) / RFU HIST1H1D (11736915_at) / Fold change /veh HIST1H1D (11736915_at) / RFU CASKIN2 (11723855_a_at) / Fold change /veh CASKIN2 (11723855_a_at) / RFU LOC730098 (11760151_x_at) / Fold change /veh LOC730098 (11760151_x_at) / RFU OR4N2 (11742367_at) / Fold change /veh OR4N2 (11742367_at) / RFU PRRT2 (11749266_a_at) / Fold change /veh PRRT2 (11749266_a_at) / RFU SNX32 (11753110_a_at) / Fold change /veh SNX32 (11753110_a_at) / RFU CDHR5 (11726645_a_at) / Fold change /veh CDHR5 (11726645_a_at) / RFU RCAN1 (11760418_a_at) / Fold change /veh RCAN1 (11760418_a_at) / RFU FAM167A (11723789_a_at) / Fold change /veh FAM167A (11723789_a_at) / RFU FAM26E (11764081_at) / Fold change /veh FAM26E (11764081_at) / RFU ISYNA1 (11749810_s_at) / Fold change /veh ISYNA1 (11749810_s_at) / RFU ACY1 (11761880_at) / Fold change /veh ACY1 (11761880_at) / RFU 11764098_at / Fold change /veh 11764098_at / RFU SAMD14 (11745864_x_at) / Fold change /veh SAMD14 (11745864_x_at) / RFU NPB (11741838_a_at) / Fold change /veh NPB (11741838_a_at) / RFU TMPRSS6 (11731388_a_at) / Fold change /veh TMPRSS6 (11731388_a_at) / RFU KRTAP10-2 (11738614_at) / Fold change /veh KRTAP10-2 (11738614_at) / RFU ARHGAP8 /// PRR5-ARHGAP8 (11727945_x_at) / Fold change /veh ARHGAP8 /// PRR5-ARHGAP8 (11727945_x_at) / RFU KRTAP5-7 /// NADSYN1 (11734609_at) / Fold change /veh KRTAP5-7 /// NADSYN1 (11734609_at) / RFU RASL12 (11751679_a_at) / Fold change /veh RASL12 (11751679_a_at) / RFU CDKN2B (11736163_a_at) / Fold change /veh CDKN2B (11736163_a_at) / RFU PRF1 (11729649_at) / Fold change /veh PRF1 (11729649_at) / RFU, ZNF638 /// ZNF638-IT1 / Fold change vs veh, ZNF638 /// ZNF638-IT1 / RFU, PANK3 / Fold change vs veh, PANK3 / RFU, SH3YL1 / Fold change vs veh, SH3YL1 / RFU, ZEB2 / Fold change vs veh, ZEB2 / RFU, NRIP1 / Fold change vs veh, NRIP1 / RFU, PTTG1IP / Fold change vs veh, PTTG1IP / RFU, CAPN2 / Fold change vs veh, CAPN2 / RFU, MED14 / Fold change vs veh, MED14 / RFU, SNORA58 / Fold change vs veh, SNORA58 / RFU, C1orf63 / Fold change vs veh, C1orf63 / RFU, LRRFIP1 / Fold change vs veh, LRRFIP1 / RFU, NDUFAF7 / Fold change vs veh, NDUFAF7 / RFU, SLC12A2 / Fold change vs veh, SLC12A2 / RFU, IBTK / Fold change vs veh, IBTK / RFU, ESF1 / Fold change vs veh, ESF1 / Fold change vs veh, TMEM50B / RFU, TAOK1 / Fold change vs veh, TAOK1 / RFU, ACBD3 / Fold change vs veh, ACBD3 / RFU, TMA16 / Fold change vs veh, TMA16 / RFU, RWDD3 / Fold change vs veh, RWDD3 / RFU, BCAT1 / Fold change vs veh, BCAT1 / RFU, EDEM3 / Fold change vs veh, EDEM3 / RFU, TMEM33 / Fold change vs veh, TMEM33 / RFU, WDR75 / Fold change vs veh, WDR75 / RFU, AHCTF1 / Fold change vs veh, AHCTF1 / RFU, TFRC / Fold change vs veh, TFRC / RFU, ZDHHC17 / Fold change vs veh, ZDHHC17 / RFU, NOM1 / Fold change vs veh, NOM1 / RFU, ARL8B / Fold change vs veh, ARL8B / RFU, ZBTB11 / Fold change vs veh, ZBTB11 / RFU, TAMM41 / Fold change vs veh, TAMM41 / RFU, KIAA1704 /// LOC100996395 / Fold change vs veh, KIAA1704 /// LOC100996395 / RFU, ING1 / Fold change vs veh, ING1 / RFU, TRMT61B / Fold change vs veh, TRMT61B / RFU, FUBP3 / Fold change vs veh, FUBP3 / RFU, TP53 / Fold change vs veh, TP53 / RFU, TNKS2 / Fold change vs veh, TNKS2 / RFU, ZFP14 / Fold change vs veh, ZFP14 / RFU, ACTR2 / Fold change vs veh, ACTR2 / RFU, PPP3R1 / Fold change vs veh, PPP3R1 / RFU, PIK3R1 / Fold change vs veh, PIK3R1 / RFU, HNRNPA1 / Fold change vs veh, HNRNPA1 / RFU, RNF170 / Fold change vs veh, RNF170 / RFU, ZNF28 / Fold change vs veh, ZNF28 / RFU, RNGTT / Fold change vs veh, RNGTT / RFU, OGT / Fold change vs veh, OGT / RFU, BRD1 / Fold change vs veh, BRD1 / RFU, MARS / Fold change vs veh, MARS / RFU, ZNF655 / Fold change vs veh, ZNF655 / RFU, FAHD1 / Fold change vs veh, FAHD1 / RFU, BDP1 / Fold change vs veh, BDP1 / RFU, LRRCC1 / Fold change vs veh, LRRCC1 / RFU, ARID1A / Fold change vs veh, ARID1A / RFU, ZNF146 / Fold change vs veh, ZNF146 / RFU, ZNF330 / Fold change vs veh, ZNF330 / RFU, GPN3 / Fold change vs veh, GPN3 / RFU, C9orf123 / Fold change vs veh, C9orf123 / RFU, N4BP2L2 / Fold change vs veh, N4BP2L2 / RFU, ARFIP1 / Fold change vs veh, ARFIP1 / RFU, FAM179B / Fold change vs veh, FAM179B / RFU, BCL10 / Fold change vs veh, BCL10 / RFU, UHRF1BP1L / Fold change vs veh, UHRF1BP1L / RFU, BET1 / Fold change vs veh, BET1 / RFU, CNOT2 / Fold change vs veh, CNOT2 / RFU, ZNF268 / Fold change vs veh, ZNF268 / Fold change vs veh, ZNF507 / RFU, DGCR2 / Fold change vs veh, DGCR2 / RFU, WDSUB1 / Fold change vs veh, WDSUB1 / Fold change vs veh, HSP90B1 /// MIR3652 / RFU, ADSS / Fold change vs veh, ADSS / RFU, GK / Fold change vs veh, GK / RFU, ZNF148 / Fold change vs veh, ZNF148 / RFU, TAF9 / Fold change vs veh, TAF9 / RFU, SLC1A5 / Fold change vs veh, SLC1A5 / RFU, SLMO2 / Fold change vs veh, SLMO2 / RFU, ABCC4 / Fold change vs veh, ABCC4 / RFU, LOC101060439 /// RAP1B / Fold change vs veh, LOC101060439 /// RAP1B / RFU, RFX7 / Fold change vs veh, RFX7 / RFU, GTPBP10 / Fold change vs veh, GTPBP10 / RFU, CNEP1R1 / Fold change vs veh, CNEP1R1 / RFU, BIVM-ERCC5 /// ERCC5 / Fold change vs veh, BIVM-ERCC5 /// ERCC5 / RFU, ILF3 / Fold change vs veh, ILF3 / RFU 11762660_at / Fold change /veh 11762660_at / RFU VCAN (11757783_s_at) / Fold change /veh VCAN (11757783_s_at) / RFU DDX43 (11728927_at) / Fold change /veh DDX43 (11728927_at) / RFU KRT8 (11758188_x_at) / Fold change /veh KRT8 (11758188_x_at) / RFU NKD1 (11759106_at) / Fold change /veh NKD1 (11759106_at) / RFU SRD5A1 (11742802_a_at) / Fold change /veh SRD5A1 (11742802_a_at) / RFU TPSAB1 /// TPSB2 (11721975_s_at) / Fold change /veh TPSAB1 /// TPSB2 (11721975_s_at) / RFU GSTM3 (11746129_a_at) / Fold change /veh GSTM3 (11746129_a_at) / RFU IL23R (11737362_x_at) / Fold change /veh IL23R (11737362_x_at) / RFU TMEM51 (11727254_a_at) / Fold change /veh TMEM51 (11727254_a_at) / RFU PIWIL2 (11732686_x_at) / Fold change /veh PIWIL2 (11732686_x_at) / RFU ORM1 (11744905_x_at) / Fold change /veh ORM1 (11744905_x_at) / RFU CCDC152 (11743942_at) / Fold change /veh CCDC152 (11743942_at) / RFU ECM1 (11717891_a_at) / Fold change /veh ECM1 (11717891_a_at) / RFU IL23R (11748794_a_at) / Fold change /veh IL23R (11748794_a_at) / RFU TNFAIP8L3 (11732012_x_at) / Fold change /veh TNFAIP8L3 (11732012_x_at) / RFU MBOAT4 (11741988_at) / Fold change /veh MBOAT4 (11741988_at) / RFU 11764193_at / Fold change /veh 11764193_at / RFU TMEM53 (11763286_at) / Fold change /veh TMEM53 (11763286_at) / RFU MAGEB2 (11727129_at) / Fold change /veh MAGEB2 (11727129_at) / RFU TMEM200A (11744735_a_at) / Fold change /veh TMEM200A (11744735_a_at) / RFU CCDC152 (11751479_a_at) / Fold change /veh CCDC152 (11751479_a_at) / RFU FAM211A (11726209_a_at) / Fold change /veh FAM211A (11726209_a_at) / RFU RGS16 (11746705_a_at) / Fold change /veh RGS16 (11746705_a_at) / RFU VCAN (11755009_s_at) / Fold change /veh VCAN (11755009_s_at) / RFU RHOB (11743442_s_at) / Fold change /veh RHOB (11743442_s_at) / RFU RGS16 (11720943_a_at) / Fold change /veh RGS16 (11720943_a_at) / RFU RGS16 (11720944_at) / Fold change /veh RGS16 (11720944_at) / RFU, VPS4B / Fold change vs veh, VPS4B / RFU, CREB1 / Fold change vs veh, CREB1 / RFU, DNAJC13 / Fold change vs veh, DNAJC13 / RFU, GNAQ / Fold change vs veh, GNAQ / RFU, CDK5R1 / Fold change vs veh, CDK5R1 / RFU, ZRANB3 / Fold change vs veh, ZRANB3 / RFU, CUL4A / Fold change vs veh, CUL4A / RFU, CCNY / Fold change vs veh, CCNY / RFU, UFL1 / Fold change vs veh, UFL1 / RFU, COG3 / Fold change vs veh, COG3 / RFU, DIAPH2 / Fold change vs veh, DIAPH2 / RFU, SKA2 / Fold change vs veh, SKA2 / RFU, AFF3 / Fold change vs veh, AFF3 / RFU, LMF1 / Fold change vs veh, LMF1 / RFU, IPO11 / Fold change vs veh, IPO11 / RFU, DFFB / Fold change vs veh, DFFB / RFU, FOXP1 / Fold change vs veh, FOXP1 / RFU, CARD8 / Fold change vs veh, CARD8 / RFU, STRN3 / Fold change vs veh, STRN3 / RFU, ADK / Fold change vs veh, ADK / RFU, RASSF2 / Fold change vs veh, RASSF2 / RFU, WIPF1 / Fold change vs veh, WIPF1 / RFU, LARP1B / Fold change vs veh, LARP1B / RFU, RASA1 / Fold change vs veh, RASA1 / RFU, RB1 / Fold change vs veh, RB1 / RFU, PPFIA1 / Fold change vs veh, PPFIA1 / RFU, MAT2A / Fold change vs veh, MAT2A / RFU, CCT5 / Fold change vs veh, CCT5 / RFU, WDR92 / Fold change vs veh, WDR92 / RFU, CUX1 / Fold change vs veh, CUX1 / RFU, TTC7A / Fold change vs veh, TTC7A / RFU, TMEM135 / Fold change vs veh, TMEM135 / RFU, DEPTOR / Fold change vs veh, DEPTOR / RFU, CPM / Fold change vs veh, CPM / RFU, DNAJB6 / Fold change vs veh, DNAJB6 / RFU, CACNA2D3 / Fold change vs veh, CACNA2D3 / RFU, DTX4 / Fold change vs veh, DTX4 / RFU, TFCP2 / Fold change vs veh, TFCP2 / RFU, GMCL1 /// GMCL1P1 / Fold change vs veh, GMCL1 /// GMCL1P1 / RFU, AEBP2 / Fold change vs veh, AEBP2 / RFU, SNHG1 /// SNORD22 /// SNORD25 /// SNORD26 /// SNORD27 /// SNORD28 /// SNORD29 /// SNORD31 / Fold change vs veh, SNHG1 /// SNORD22 /// SNORD25 /// SNORD26 /// SNORD27 /// SNORD28 /// SNORD29 /// SNORD31 / Fold change (Aza/veh), C12orf56 (ProbeSet 11735607_a_at) / Fold change (ACY-1035/veh), C12orf56 (ProbeSet 11735607_a_at) / Fold change (Aza/veh), FGFR1OP (ProbeSet 11751329_s_at) / Fold change (ACY-1035/veh), FGFR1OP (ProbeSet 11751329_s_at) / Fold change (Aza/veh), VPS36 (ProbeSet 11739960_a_at) / Fold change (ACY-1035/veh), VPS36 (ProbeSet 11739960_a_at) / RFU SYPL1 (11715823_x_at) / Fold change /veh SYPL1 (11715823_x_at) / RFU IGFBP7 (11715501_s_at) / Fold change /veh IGFBP7 (11715501_s_at) / RFU REEP3 (11722064_at) / Fold change /veh REEP3 (11722064_at) / RFU IGLL1 (11728026_x_at) / Fold change /veh IGLL1 (11728026_x_at): dose or concentration left out as unconfirmed. Conditions: MV-4-11 cells, 48 hours.

With `Nc1ccc(-c2cccs2)cc1NC(=O)c1ccc2c(c1)cc(C1CC1)n2CCN1CCOCC1` [ACY-1035], the “Fold change /veh FAM26E (11764081_at)” value came to 0.88.

(Values after PMC5218480 (PLoS ONE, 2017).)
